{
  "source": "patent US4113858A",
  "about": "“Novel compounds, compositions and methods of their use” (St. Luke's Hospital, priority 1976, dated 1978)",
  "key": {"Guinea Pigs [1]": {"test_system": "Guinea Pigs", "assay": "Challenge with Compound V in Freund's complete adjuvant (Table VII, groups 1-3)", "type": "in vivo", "details": "no treatment"}, "Guinea Pigs [2]": {"test_system": "Guinea Pigs", "assay": "Non-encephalitogenic properties of Compound V, disease index (Table II)", "type": "in vivo", "from_the_text": "A number of guinea pigs are divided into equal groups I, II, III, IV, V, VI and VII. Each of groups I, II, III and IV are given a single subcutaneous administration of the compound (V) (formula: H -- Phe -- Ser -- Trp -- Gln -- Lys )4 Gly -- OH) prepared according to Example 1. supra. The dose administered, in Complete Freund's adjuvant and the disease index (number of animals showing disease symptons/number tested) obtained after 30 and 120 days, respectfully, are given in Table II below. Groups, V, VI and VII serve as controls. Group V received a single administration of the myelin basic protein (BP), group VI received a single administration of peptide E (E), the encephalitogenic region derived from the encephalitogenic basic protein. Group VII received a single administration of Complete Freund's adjuvant alone.\nThe figures show the number of diseased guinea pigs per number tested. The disease index for experimental allergic encephalomyelitis (EAE) is reported in terms of clinical and histophathological criteria by day 30 following sensitization."}, "Guinea Pigs [3]": {"test_system": "Guinea Pigs", "assay": "Specificity of delayed type skin hypersensitivity response (Table III)", "type": "in vivo", "protocol": "Guinea pigs are sensitized (10 animals/group) with 500 μg each of compound (V) (prepared according to Example 1, supra.), myelin basic protein (BP), the alpha -1 component of calf skin (α1 -- calf) and the alpha -1 component of guinea pig collagen (α1 -- g.p.), emulsified in complete Freund's adjuvant. At day 11 after sensitization, the animals were skin tested with various doses of the specific antigens dissolved in saline. Positive responses are indicated by erythema at the skin test site. A control group is administered saline."}, "Guinea Pigs [4]": {"test_system": "Guinea Pigs", "assay": "Delayed type skin hypersensitivity response (Table IV)", "type": "in vivo", "details": "carrier CFA, IFA or saline; response dose related", "from_the_text": "Guinea pigs are sensitized (10 animals/group) with varying doses of the compound (V) (prepared according to Example 1, supra.) administered subcutaneously in Complete Freund's adjuvant, incomplete Freund's adjuvant and saline. At various times following this administration, the animals were skin tested with various doses of compound (V) in saline.\nThe extent of the DTH response is dose related. Compound (V) induces DTH response regardless of whether the carrier is Complete Freund's adjuvant (CFA), incomplete Freund's adjuvant (IFA) or physiological saline (saline). The values shown are the average skin response of 10 animals in each group. The numbers shown are measurements of the cross-sectional diameters of the erythematous area recorded at 24 hours following the skin test."}, "Guinea Pigs [5]": {"test_system": "Guinea Pigs"}, "[6]": {"details": "Group 1: challenge 25 μg in FCA"}, "[7]": {"details": "Group 2: challenge 100 μg in FCA"}, "[8]": {"details": "Group 3: challenge 5,000 μg in FCA"}, "[9]": {"details": "Group 9: challenge 150 μg BP, 4.0 mg daily, started second day after onset of hind leg paralysis"}},
  "note": "Read-outs that look alike come from different tables or passages of the source. Ends that are not written are not given here.",
  "data": [
    {"sequence": "FSWQKFSWQKFSWQKFSWQKG [Compound V, H -- Phe -- Ser -- Trp -- Gln -- Lys]4 Gly -- OH]", "values": [
      {"measurement": "Clinical EAE", "setting": "Guinea Pigs [1]; [6]", "result": "0/15"},
      {"measurement": "Histological EAE", "setting": "Guinea Pigs [1]; [6]", "result": "0/15"},
      {"measurement": "Clinical EAE", "setting": "Guinea Pigs [1]; [7]", "result": "0/10"},
      {"measurement": "Histological EAE", "setting": "Guinea Pigs [1]; [7]", "result": "0/15"},
      {"measurement": "Clinical EAE", "setting": "Guinea Pigs [1]; [8]", "result": "0/10"},
      {"measurement": "Histological EAE", "setting": "Guinea Pigs [1]; [8]", "result": "0/10"},
      {"measurement": "Disease Index", "setting": "Guinea Pigs [2]; Day 30, 0.005 mg antigen in CFA, single s.c.", "result": "0/10"},
      {"measurement": "Disease Index", "setting": "Guinea Pigs [2]; Day 30, 0.025 mg antigen in CFA, single administration", "result": "0/15"},
      {"measurement": "Disease Index", "setting": "Guinea Pigs [2]; Day 30, 0.100 mg antigen in CFA, single s.c.", "result": "0/20"},
      {"measurement": "Disease Index", "setting": "Guinea Pigs [2]; Day 30, 0.500 mg antigen in CFA, single s.c., diseased/tested", "result": "0/10"},
      {"measurement": "Disease Index", "setting": "Guinea Pigs [2]; Day 120, 0.100 mg antigen in CFA", "result": "0/10"},
      {"measurement": "Disease Index", "setting": "Guinea Pigs [2]; Day 120, 0.500 mg antigen in CFA", "result": "0/10"},
      {"measurement": "delayed skin response elicited", "setting": "Guinea Pigs [3]; in animals sensitized with compound V or BP", "result": "positive delayed skin responses"},
      {"measurement": "delayed skin response elicited", "setting": "Guinea Pigs [3]; in animals sensitized with the α1-calf or α1-g.p. component of skin collagen", "result": "negative skin responses"},
      {"measurement": "antigenicity / induction of delayed type hypersensitivity (DTH)", "setting": "Guinea Pigs [4]", "result": "antigenic and induces delayed type hypersensitivity (DTH)"},
      {"measurement": "Clinical EAE", "setting": "Guinea Pigs [5]; Group 4: challenge 100 μg BP in FCA, 1 mg daily s.c. in FIA day 8 through day 17", "result": "2/4"},
      {"measurement": "Clinical EAE", "setting": "Guinea Pigs [5]; Group 4: challenge 100 μg BP in FCA, 1 mg daily s.c. in FIA day 8 through day 17, listed as compound (V)", "result": "significantly reduced the incidence of disease"},
      {"measurement": "Reversal clinical EAE", "setting": "Guinea Pigs [5]; Group 4: challenge 100 μg BP, 1 mg daily s.c. in FIA day 8 through day 17", "result": "2/4"},
      {"measurement": "Histological EAE", "setting": "Guinea Pigs [5]; Group 4: challenge 100 μg BP, 1 mg daily s.c. in FIA day 8 through day 17, day 32", "result": "2/4"},
      {"measurement": "Histological EAE", "setting": "Guinea Pigs [5]; Group 6: challenge 150 μg BP, 2.5 mg daily for 10 days from hind leg paralysis, day 32", "result": "2/5"},
      {"measurement": "Histological EAE", "setting": "Guinea Pigs [5]; Group 6: challenge 150 μg BP, 2.5 mg daily for 10 days from hind leg paralysis, day 32, listed as compound (V)", "result": "2 out of 5"},
      {"measurement": "Reversal clinical EAE", "setting": "Guinea Pigs [5]; Group 6: challenge 150 μg BP, 2.5 mg daily for 10 days from the day hind leg paralysis is observed", "result": "5/5"},
      {"measurement": "Clinical EAE", "setting": "Guinea Pigs [5]; Group 6: challenge 150 μg BP, 2.5 mg daily s.c. in FIA for 10 days from the day hind leg paralysis is observed", "result": "5/5"},
      {"measurement": "guinea pigs that died without evidence of improvement", "setting": "Guinea Pigs [5]; Group 9, after the second treatment", "result": "one of seven"},
      {"measurement": "Clinical EAE", "setting": "Guinea Pigs [5]; [9]", "result": "7/7"},
      {"measurement": "Histological EAE", "setting": "Guinea Pigs [5]; [9]", "result": "4/7"},
      {"measurement": "Reversal clinical EAE", "setting": "Guinea Pigs [5]; [9]", "result": "6/7"}
    ]}
  ]
}
